This is an account of results in patent US6169181A, “Compounds useful to treat retroviral infections” (Pharmacia & Upjohn Company, priority 1998, dated 2001).

The target in one experiment is HIV-1 protease (Human immunodeficiency virus type 1 group M subtype B, UniProt P04585). Kind of experiment: biochemical. The essentials:
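Percent inhibition came from fluorescence of FITC-tagged cleavage product, separated by filtration from uncleaved substrate captured on streptavidin-coated beads. The enzyme (10 μl of 0.1 μM) and compound acted on a biotin/FITC dual-labelled peptide for one hour at room temperature in the dark. The reaction ran in 0.1 M sodium acetate, pH 5.5, with 1.0 M NaCl and 0.05% NP-40.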

The target of experiment [1] is T1, single chain tethered (tandem) HIV protease (HIV-1 M:B_HXB2R, UniProt P04585).
T1 construct: purified enzyme, FITC/biotin substrate assay
Kind of experiment: Tandem HIV protease assay. The class given is biochemical. To be noted: read-out: FITC KI; Table II; enzyme HIV1TANDEM. A digest of the protocol: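 Covalently tethered single-chain HIV protease dimer allows very low enzyme levels for Ki measurement. N-biotinylated, C-fluorescein-labelled peptide substrate incubated with enzyme and inhibitor at pH 5.5 in the dark for 96 h; streptavidin beads stop reaction, cleaved product filtered off and residual fluorescence fitted to obtain Ki.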

Setting [2] is: Table II, enzyme HIV-1, DOSE 0.123 (unit not given).
Setting [3] is: Table II, enzyme HIV-1, DOSE 0.370 (unit not given).
[4] abbreviates: Table II, enzyme HIV-1, DOSE 1.100 (unit not given).
The mark [5] stands for this setting: Table II, enzyme HIV-1, DOSE 3.300 (unit not given).
[6] abbreviates: Table II, enzyme HIV-1, DOSE 10.000 (unit not given).
[7] abbreviates: Table II, enzyme HIV-1, DOSE 30.000 (unit not given).

Where “and” joins values, the source holds several entries; their conditions need not be identical. Equal entries are not always repeated. Where two headings read alike, the source gives them in different places.

As to `Cn1cnc(S(=O)(=O)Nc2cccc(C(C3=C(O)CC(CCc4ccccc4)(CCC(F)(F)F)OC3=O)C(C)(C)C)c2)c1` (single isomer, unassigned) [Example 276, N-[3-(R or S)-[1-[5,6-dihydro-4-hydroxy-2-oxo-6-(R or S)-(2-phenethyl)-6-(3,3,3-trifluoropropyl)-2H-pyran-3-yl]-2,2-dimethylpropyl]phenyl]-1-methyl-1H-imidazole-4-sulfonamide], the “PROTEASE % INHIB.” value at HIV-1 protease (setting [2]) is recorded as 16.49%; on HIV-1 protease (setting [3]), 38.95%; at HIV-1 protease (setting [4]) it was 66.1%; at HIV-1 protease (setting [5]), 90.01%; on HIV-1 protease (setting [6]), 90.97%; on HIV-1 protease (setting [7]), 87.6%. Besides, the inhibitory constant (Ki) in experiment [1] was 33 nM.
As to `CCC[C@]1(CCc2ccccc2)CC(O)=C([C@H](CC)c2cccc(NS(=O)(=O)c3ccc(C#N)cn3)c2)C(=O)O1` (single isomer, unassigned) [Example 336, N-[3-{1(R or S)-(4-Hydroxy-5,6-dihydro-2-oxo-6(S or R)-phenethyl-6-propyl-2H-pyran-3-yl)propyl}phenyl]-5-cyanopyridine-2-sulfonamide], on HIV-1 protease, the “PROTEASE % INHIB.” value was 65.64 and 112 and 89.54 and 88.06 and 77.12 and 62.28. The Ki in experiment [1] was found to be 0.032 nM.
In the case of `CCCC1(CCC)CC(O)=C(C(CC)c2cccc(NS(=O)(=O)c3ccc(C(N)=O)cn3)c2)C(=O)O1` (centres unmarked) [Example 334, N-[3-{1-(4-Hydroxy-5,6-dihydro-2-oxo-6,6-dipropyl-2H-pyran-3-yl)propyl}phenyl]-5-carbamoylpyridine-2-sulfonamide], the “PROTEASE % INHIB.” value at HIV-1 protease (setting [2]) amounted to 93.49%; on HIV-1 protease (setting [3]) it was 90.25%; at HIV-1 protease (setting [4]) it was 94.57%; at HIV-1 protease (setting [5]), 102.47%; on HIV-1 protease (setting [6]), 97.61%; on HIV-1 protease (setting [7]), 96.3%. In addition, the inhibitory constant (Ki) in experiment [1] worked out at 0.45 nM.
In the case of `CCC[C@@]1(CCc2ccccc2)CC(O)=C([C@H](CC)c2cccc(NS(=O)(=O)c3ccc(C#N)cn3)c2)C(=O)O1` (single isomer, unassigned) [Example 335, N-[3-{1(R or S)-(4-Hydroxy-5,6-dihydro-2-oxo-6(R or S)-phenethyl-6-propyl-2H-pyran-3-yl)propyl}phenyl]-5-cyanopyridine-2-sulfonamide], the “PROTEASE % INHIB.” value at HIV-1 protease was 60.07 and 99.75 and 97.05 and 92.06 and 89.77 and 76.25. Further, in experiment [1], the Ki is 0.04 nM.
`CC(C)CC1(CC(C)C)CC(O)=C(C(c2cccc(NS(=O)(=O)c3ccc(C#N)cn3)c2)C(C)(C)C)C(=O)O1` (racemic) [Example 306, 5-Cyano-N-[3-(1-[5,6-dihydro-6,6-diisobutyl-4-hydroxy-2-oxo-2H-pyran-3-yl]-2,2-dimethylpropyl)-phenyl]-2-pyridinesulfonamide]: the “PROTEASE % INHIB.” value on HIV-1 protease (setting [2]) worked out at 71.79%; on HIV-1 protease (setting [3]), 82.71%; at HIV-1 protease (setting [4]), 89.3%; on HIV-1 protease (setting [5]) it was 97.29%; at HIV-1 protease (setting [6]), 82.59%; on HIV-1 protease (setting [7]) it was 53.43%. Further, the inhibitory constant (Ki) in experiment [1] was determined as 0.04 nM.
As for `CCC[C@@]1(CCc2ccccc2)CC(O)=C([C@H](CC)c2cccc(NS(=O)(=O)c3ccc(N)cn3)c2)C(=O)O1` (single isomer, unassigned) [Example 314, 5-Amino-N-[3(R or S)-(1-[5,6-dihydro-4-hydroxy-2-oxo-6(R or S)-(2-phenylethyl)-6-propyl-2H-pyran-3-yl]propyl)phenyl]-2-pyridinesulfonamide], the “PROTEASE % INHIB.” value on HIV-1 protease (setting [2]) is 82.92%; at HIV-1 protease (setting [3]) it was 96.14%; at HIV-1 protease (setting [4]) it was 114.86%; on HIV-1 protease (setting [5]) it was 100.76%; on HIV-1 protease (setting [6]) it was 88.75%; at HIV-1 protease (setting [7]) it was 73.42%. Also, in experiment [1], the inhibitory constant (Ki) was found to be 0.7 nM.
Take `CCCC1(CCC)CC(O)=C(C(c2cccc(NS(=O)(=O)c3ccc(C(F)(F)F)cn3)c2)C(C)(C)C)C(=O)O1` (single isomer, unassigned) [Example 285, 5-Trifluoromethyl-N-[3-(R or S)-[1-[4-hydroxy-2-oxo-6,6-di-n-propyl-5,6-dihydro-2H-pyran-3-yl]-2,2-dimethylpropyl]-phenyl]-2-pyridinesulfonamide]: the “PROTEASE % INHIB.” value is listed as 81.8% on HIV-1 protease (setting [2]); 95.8% at HIV-1 protease (setting [3]); 99.11% on HIV-1 protease (setting [4]); 109.33% on HIV-1 protease (setting [5]); 104.61% at HIV-1 protease (setting [6]); 86.84% at HIV-1 protease (setting [7]). Besides, in experiment [1], the inhibitory constant (Ki) was 0.015 nM.
For the compound `CCCC1(CCc2ccccc2)CC(O)=C(C(c2cccc(NS(=O)(=O)c3ccc(N)cn3)c2)C(C)(C)C)C(=O)O1` (centres unmarked) [Example 299, 5-Amino-N-[3-(1-[5,6-dihydro-4-hydroxy-2-oxo-6-(2-phenylethyl)-6-propyl-2H-pyran-3-yl]-2,2-dimethylpropyl)phenyl]-2-pyridinesulfonamide], the “PROTEASE % INHIB.” value on HIV-1 protease was 83.51 and 104.76 and 117.95 and 115.61 and 128.03 and 102.89. In experiment [1], the inhibition constant (Ki) was 0.2 nM.
As to `CCCC1(CCc2ccccc2)CC(O)=C(C(c2cccc(NS(=O)(=O)c3ccccn3)c2)C(C)(C)C)C(=O)O1` (single isomer, unassigned) [Example 278, N-[3-(R or S)-[1-[5,6-dihydro-4-hydroxy-2-oxo-6-(2-phenethyl)-[6-(R or S)-propyl]-2H-pyran-3-yl]-2,2-dimethylpropyl]phenyl]-2-pyridinesulfonamide], the “PROTEASE % INHIB.” value was 76.76% at HIV-1 protease (setting [2]); 86.99% on HIV-1 protease (setting [3]); 95.6% on HIV-1 protease (setting [4]); 96.91% on HIV-1 protease (setting [5]); 93.32% on HIV-1 protease (setting [6]); 86.18% at HIV-1 protease (setting [7]). For the same compound, in experiment [1], the inhibition constant Ki turned out to be 0.04 nM.
On to `CC(C)CC1(CC(C)C)CC(O)=C(C(c2cccc(NS(=O)(=O)c3cn(C)cn3)c2)C(C)(C)C)C(=O)O1` (racemic) [Example 305, N-[3-(1-[5,6-Dihydro-6,6-diisobutyl-4-hydroxy-2-oxo-2H-pyran-3-yl]-2,2-dimethylpropyl)-phenyl]-1-methyl-1H-imidazole-4-sulfonamide], for which the “PROTEASE % INHIB.” value at HIV-1 protease (setting [2]) was 99.99%; on HIV-1 protease (setting [3]), 110.76%; at HIV-1 protease (setting [4]) it was 114.35%; at HIV-1 protease (setting [5]), 110.88%; at HIV-1 protease (setting [6]), 102.01%; at HIV-1 protease (setting [7]), 57.83%. Moreover, the Ki in experiment [1] turned out to be 0.4 nM.
As for `CC(C)(C)C(C1=C(O)CC(CCc2ccccc2)(CCc2ccccc2)OC1=O)c1cccc(NS(=O)(=O)c2ccc(N)cn2)c1` (single isomer, unassigned) [Example 356, N-[3-{1(S or R)-(4-Hydroxy-5,6-dihydro-2-oxo-6,6-bis(2-phenyl-ethyl)-2H-pyran-3-yl)-2,2-dimethylpropyl}phenyl]-5-amino-pyridine-2-sulfonamide], the “PROTEASE % INHIB.” value is 54.96% on HIV-1 protease (setting [2]); 71.75% at HIV-1 protease (setting [3]); 90.19% at HIV-1 protease (setting [4]); 92.28% on HIV-1 protease (setting [5]); 100.22% on HIV-1 protease (setting [6]); 95.16% on HIV-1 protease (setting [7]). Further, the inhibition constant (Ki) in experiment [1] was determined as 1.1 nM.
On to `CCC[C@@]1(CCc2ccccc2)CC(O)=C([C@@H](c2cccc(NS(=O)(=O)c3cn(C)cn3)c2)C(C)(C)C)C(=O)O1` (single isomer, unassigned) [Example 310, N-[3(R or S)-[1-(5,6-Dihydro-4-hydroxy-2-oxo-6(R or S)-[2-phenylethyl]-6-propyl-2H-pyran-3-yl)-2,2-dimethylpropyl]phenyl]-1-methyl-1H-imidazole-4-sulfonamide], for which the “PROTEASE % INHIB.” value is listed as 16.81% on HIV-1 protease (setting [2]); 50.11% on HIV-1 protease (setting [3]); 78.69% at HIV-1 protease (setting [4]); 100.22% at HIV-1 protease (setting [5]); 124.77% on HIV-1 protease (setting [6]); 110.91% at HIV-1 protease (setting [7]). In addition, in experiment [1], the Ki was 1.5 nM.
For `CCC[C@@]1(CCc2ccccc2)CC(O)=C([C@@H](c2cccc(NS(=O)(=O)c3cn(C)cn3)c2)C(C)(C)C)C(=O)O1` (single isomer, unassigned) [Example 308, N-[3(R or S)-[1-(5,6-Dihydro-4-hydroxy-2-oxo-6(R or S)-[2-phenylethyl]-6-propyl-2H-pyran-3-yl)-2,2-dimethylpropyl]phenyl]-1-methyl-1H-imidazole-4-sulfonamide], the “PROTEASE % INHIB.” value on HIV-1 protease (setting [2]) turned out to be 75.06%; at HIV-1 protease (setting [3]) it was 108.14%; on HIV-1 protease (setting [4]), 95.01%; on HIV-1 protease (setting [5]), 108.43%; at HIV-1 protease (setting [6]), 110.75%; on HIV-1 protease (setting [7]), 96.28%. Besides, the Ki in experiment [1] came out at 0.074 nM.
Regarding `CCCC1(CCc2ccccc2)CC(O)=C(C(c2cccc(NS(=O)(=O)c3cn(C)cn3)c2)C(C)(C)C)C(=O)O1` (single isomer, unassigned) [Example 307, N-[3(R or S)-[1-(5,6-Dihydro-4-hydroxy-2-oxo-6(R or S)-[2-phenylethyl]-6-propyl-2H-pyran-3-yl)-2,2-dimethylopropyl]phenyl]-1-methyl-1H-imidazole-4-sulfonamide], the “PROTEASE % INHIB.” value at HIV-1 protease (setting [2]) came to 77.39%; at HIV-1 protease (setting [3]), 99.85%; on HIV-1 protease (setting [4]) it was 107.87%; at HIV-1 protease (setting [5]), 93.34%; at HIV-1 protease (setting [6]) it was 83.49%; on HIV-1 protease (setting [7]), 69.74%. Besides, the Ki in experiment [1] came to 0.072 nM.
